Assay [1] addresses T1, androgen receptor (AR) (Mus musculus, UniProt P19091).
T1 construct: the L929 cells which express the AR but not the PR; endogenous in cells; host or cells: L929 cells
T1 sequence (P19091 1-899): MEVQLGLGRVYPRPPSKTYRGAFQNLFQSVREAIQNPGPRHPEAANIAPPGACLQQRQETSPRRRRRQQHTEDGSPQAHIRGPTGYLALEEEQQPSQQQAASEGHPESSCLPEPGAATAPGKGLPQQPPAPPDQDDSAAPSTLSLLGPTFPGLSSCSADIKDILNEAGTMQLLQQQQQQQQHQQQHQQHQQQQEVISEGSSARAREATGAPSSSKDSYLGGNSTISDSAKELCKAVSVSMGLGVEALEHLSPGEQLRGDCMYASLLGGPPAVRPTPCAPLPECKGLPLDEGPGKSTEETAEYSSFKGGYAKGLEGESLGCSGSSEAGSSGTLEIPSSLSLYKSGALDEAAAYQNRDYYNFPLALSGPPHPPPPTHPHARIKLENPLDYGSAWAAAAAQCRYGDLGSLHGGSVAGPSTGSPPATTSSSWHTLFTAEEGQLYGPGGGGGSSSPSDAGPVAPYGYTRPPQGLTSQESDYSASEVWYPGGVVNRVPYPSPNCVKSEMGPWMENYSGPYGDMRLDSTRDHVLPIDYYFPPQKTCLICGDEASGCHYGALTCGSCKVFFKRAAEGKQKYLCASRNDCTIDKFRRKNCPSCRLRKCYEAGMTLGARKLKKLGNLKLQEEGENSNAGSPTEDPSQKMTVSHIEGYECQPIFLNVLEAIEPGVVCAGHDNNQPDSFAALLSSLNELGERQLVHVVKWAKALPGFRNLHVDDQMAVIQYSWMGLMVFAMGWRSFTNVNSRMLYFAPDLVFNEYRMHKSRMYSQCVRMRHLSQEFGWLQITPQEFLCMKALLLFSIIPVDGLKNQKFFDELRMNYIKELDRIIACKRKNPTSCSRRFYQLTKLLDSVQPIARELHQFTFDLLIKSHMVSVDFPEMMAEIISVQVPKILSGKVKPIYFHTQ
The assay can be described thus: AR agonistic activity, PRE-tk-luciferase reporter in L929 cells. The assay is classed as cell-based. Particulars: at the maximum concentration tested (i.e., 10 nM). On the procedure: (§1) The androgen receptor (AR) agonistic and antagonistic activity of the compositions of the invention in the L929 cells which express the AR but not the PR was evaluated as described in Zhang et al., Steroids, 65(10–11): 637–643 (October–November 2000).
(§2) Cells were plated in 96-well plates at 25,000 cells/well in DMEM (Bio Whittaker) with 10% (v/v) fetal bovine serum (FBS). The next day, cells were infected with the adenovirus PRE-tk-luciferase reporter construct (2×10^9 pfu/ml particles) and kept in DMEM containing 10% charcoal stripped FBS for an additional 24 hours. […] To test the anti-androgenic activity, cells were co-treated with 3 nM DHT. Luciferase activity was measured 24 hours following the treatment.

The target of assay [2] is T1, androgen receptor (AR). The assay can be described thus: Anti-androgenic (AR antagonistic) activity, PRE-tk-luciferase reporter in L929 cells co-treated with DHT. The assay is classed as cell-based. Particulars: co-treated with 3 nM DHT. On the procedure: as §1, §2
On the technique in general: In a reporter assay the amount or activity of a reporter protein is the signal.

As a reminder, the IC50 is the concentration that inhibits the measured activity by half.

Molecules are shown by their SMILES.

Turning to `Cn1c(C#N)ccc1-c1ccc2c(c1)C(C)(C)OC(=S)N2` [5-(4,4-dimethyl-2-thioxo-1,4-dihydro-2H-3,1-benzoxazin-6-yl)-1-methyl-1H-pyrrole-2-carbonitrile], the agonistic activity entry at androgen receptor (AR) [1] is recorded as “only marginal agonistic activity”. Besides, at androgen receptor (AR) [2] (L929 cells expressing AR but not PR, PRE-tk-luciferase reporter, luciferase measured 24 hours after treatment), the 50% inhibitory concentration (IC50) was 109 nM. Besides, at androgen receptor (AR) [2] (L929 cells, nine point dose response), the antagonistic activity entry was “significant antagonistic activity”.

The values above are taken from patent US7192956B2, “Methods of treating hormone-related conditions using cyclothiocarbamate derivatives” (Wyeth, priority 2002, dated 2007).
